Assay results as given in patent US7511119B2, “PRAME peptide analogues” (MannKind Corporation, priority 2005, dated 2009).
Square brackets hold non-standard residues; d marks the D form. Ends that are not written are not given here. Peptide text beside a SMILES is read from it. Phe(4-NO2) = N[C@@H](Cc1ccc([N+](=O)[O-])cc1)C(=O)O; Bta = N[C@@H](Cc1csc2ccccc12)C(=O)O; Phg = N[C@H](C(=O)O)c1ccccc1; Nle = CCCC[C@H](N)C(=O)O; Nva = CCC[C@H](N)C(=O)O

B1: SSX2 41-49 (K41F, A42V, E44D) (peptide)
peptide: FVSDKIFYV
B2: SSX2 41-49 (K41F, A42V, I46L, Y48S, V49A) (peptide)
peptide: FVSEKLFSA
B3: SSX2 41-49 (K41F, A42V, I46L, Y48T) (peptide)
peptide: FVSEKLFTV
B4: SSX2 41-49 (K41F, A42V, E44Q) (peptide)
peptide: FVSQKIFYV
B5: SSX2 41-49 (K41F, A42V, Y48F) (peptide)
peptide: FVSEKIFFV
B6: SSX2 41-49 (K41F, A42V, I46L) (peptide)
peptide: FVSEKLFYV

Assays:
[1] = molecular target: HLA-A*0201 (Homo sapiens, UniProt P04439, D140Y/D185E/D98H/E176V/E277Q/G131W/G231S/I119V/I121R/I166T/I218V/L300P/L318F/N151K/N90K/P208A/P217A/Q86G/Q94H/R138H/R169H/T345S); assay: Peptide binding using T2 cells; settings: half maximal binding of wild-type peptide relative to analog;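 note: Read-out is peptide-induced stabilization of HLA-A*0201 on the cell surface, reflecting mainly Kon at limiting peptide levels and both Kon and Koff at saturating levels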
Description: Thus, at limiting concentrations of peptide, it is a measurement of Kon mostly and at saturation levels of peptide it is a measurement of both Kon and Koff.
Thus, at limiting concentrations of peptide, this is a measurement of Kon mostly and at saturation levels of peptide that is a measurement of both Kon and Koff.

[2] = tested on: T cell lines against natural epitope SSX-241-49; assay: Cross-reactivity and functional avidity: IFN-gamma production by T cell lines raised against natural SSX-2 41-49; assay type: cell-based, HHD transgenic mice; settings: for Cross-reactivity and fct avidity (native to analogs)*: T cells raised to native peptide tested on analogs, footnote * and unit not given;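 for all read-outs here: analogs presented ex vivo by competent APCs to T cells specific for the non-mutated epitope, scored by lowest activating concentration, peak cytokine effect and concentration at that peak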
[3] = molecular target: T1, HLA-A*0201 on T2 cells (human); assay: T2 cells, wild-type/analog half-maximal binding
T1 construct: whole, on cells; Class I MHC on the surface of T2 cells, detected with a fluorescent anti-A2 antibody; beta2-microglobulin is not mentioned for this assay; also called MHC class I (A2 allele)

Molecule	Relative affinity (1/RA) [1]	Cross-reactivity and fct avidity (native to analogs)* [2]	activity in cross-reactivity assay (IFN-gamma production by wild-type SSX-2 41-49 specific T cells), in words ([2]; compared with wild-type peptide)	Relative affinity (1/RA) [3]
CC[C@H](C)[C@H](NC(=O)[C@H](CCCCN)NC(=O)[C@H](CCC(=O)O)NC(=O)[C@H](CO)NC(=O)[C@H](C)NC(=O)[C@@H](N)Cc1ccc(OC)cc1)C(=O)N[C@@H](Cc1ccccc1)C(=O)N[C@@H](Cc1ccc(O)cc1)C(=O)N[C@H](C(=O)O)C(C)C [SSX2 41-49 (K41(O-methyl Tyr))] (H-Y(Me)ASEKIFYV-OH)	0.8	3		
CC[C@H](C)[C@H](NC(=O)[C@H](CCCCN)NC(=O)[C@H](CCC(=O)O)NC(=O)[C@H](CO)NC(=O)[C@H](C)NC(=O)[C@@H](N)Cc1ccc([N+](=O)[O-])cc1)C(=O)N[C@@H](Cc1ccccc1)C(=O)N[C@@H](Cc1ccc(O)cc1)C(=O)N[C@H](C(=O)O)C(C)C [SSX2 41-49 (K41(Phe-4NO2))] (H-[Phe(4-NO2)]ASEKIFYV-OH)	1.1	3		
CC[C@H](C)[C@H](NC(=O)[C@H](CCCCN)NC(=O)[C@H](CCC(=O)O)NC(=O)[C@H](CO)NC(=O)[C@H](C)NC(=O)[C@@H](N)c1ccccc1)C(=O)N[C@@H](Cc1ccccc1)C(=O)N[C@@H](Cc1ccc(O)cc1)C(=O)N[C@H](C(=O)O)C(C)C [SSX2 41-49 (K41(Phg))] (H-[Phg]ASEKIFYV-OH)	2.5	0.1		
CC[C@H](C)[C@H](NC(=O)[C@H](CCCCN)NC(=O)[C@H](CCC(=O)O)NC(=O)[C@H](CO)NC(=O)[C@H](C)NC(=O)[C@@H](N)Cc1csc2ccccc12)C(=O)N[C@@H](Cc1ccccc1)C(=O)N[C@@H](Cc1ccc(O)cc1)C(=O)N[C@H](C(=O)O)C(C)C [SSX2 41-49 (K41(b-(3-benzothienyl)Ala))] (H-[Bta]ASEKIFYV-OH)	0.6	10		
CCCC[C@H](NC(=O)[C@H](CO)NC(=O)[C@@H](NC(=O)[C@@H](N)Cc1ccccc1)C(C)C)C(=O)N[C@@H](CCCCN)C(=O)N[C@H](C(=O)N[C@@H](Cc1ccccc1)C(=O)N[C@@H](Cc1ccc(O)cc1)C(=O)N[C@H](C(=O)O)C(C)C)[C@@H](C)CC [SSX2 41-49 (K41F, A42V, E44Nle), FVS(Nle)KIFYV] (H-FVS[Nle]KIFYV-OH)	1.1	10		
CCC[C@H](NC(=O)[C@H](CO)NC(=O)[C@@H](NC(=O)[C@@H](N)Cc1ccccc1)C(C)C)C(=O)N[C@@H](CCCCN)C(=O)N[C@H](C(=O)N[C@@H](Cc1ccccc1)C(=O)N[C@@H](Cc1ccc(O)cc1)C(=O)N[C@H](C(=O)O)C(C)C)[C@@H](C)CC [SSX2 41-49 (K41F, A42V, E44Nva), FVS(Nva)KIFYV] (H-FVS[Nva]KIFYV-OH)	3.9	3		
CCCC[C@H](NC(=O)[C@H](CCCCN)NC(=O)[C@H](CCC(=O)O)NC(=O)[C@H](CO)NC(=O)[C@@H](NC(=O)[C@@H](N)Cc1ccccc1)C(C)C)C(=O)N[C@@H](Cc1ccccc1)C(=O)N[C@@H](Cc1ccc(O)cc1)C(=O)N[C@H](C(=O)O)C(C)C [SSX2 41-49 (K41F, A42V, I46Nle), FVSEK(Nle)FYV] (H-FVSEK[Nle]FYV-OH)	1.1	10		
CCC[C@H](NC(=O)[C@H](CCCCN)NC(=O)[C@H](CCC(=O)O)NC(=O)[C@H](CO)NC(=O)[C@@H](NC(=O)[C@@H](N)Cc1ccccc1)C(C)C)C(=O)N[C@@H](Cc1ccccc1)C(=O)N[C@@H](Cc1ccc(O)cc1)C(=O)N[C@H](C(=O)O)C(C)C [SSX2 41-49 (K41F, A42V, I46Nva), FVSEK(Nva)FYV] (H-FVSEK[Nva]FYV-OH)	2.4	1		
CC[C@H](C)[C@H](NC(=O)[C@H](CCCCN)NC(=O)[C@H](CCC(=O)O)NC(=O)[C@H](CO)NC(=O)[C@@H](NC(=O)[C@@H](N)Cc1ccccc1)C(C)C)C(=O)N[C@@H](Cc1ccccc1)C(=O)N[C@@H](Cc1ccccc1)C(=O)N[C@H](C(=O)O)C(C)C [SSX2 41-49 (K41F, A42V, Y48F)]	1.7	10		
CC[C@H](C)[C@H](NC(=O)[C@H](CCCCN)NC(=O)[C@H](CCC(=O)O)NC(=O)[C@H](CO)NC(=O)[C@@H](NC(=O)[C@@H](N)Cc1ccccc1)C(C)C)C(=O)N[C@@H](Cc1ccccc1)C(=O)N[C@H](C(=O)N[C@H](C(=O)O)C(C)C)c1ccccc1 [SSX2 41-49 (K41F, A42V, Y48Phg), FVSEKIF(Phg)V] (H-FVSEKIF[Phg]V-OH)	2.5	>10		
CC[C@H](C)[C@H](NC(=O)[C@H](CCCCN)NC(=O)[C@H](CCC(=O)O)NC(=O)[C@H](CO)NC(=O)[C@@H](NC(=O)[C@@H](N)Cc1ccc(O)cc1)C(C)C)C(=O)N[C@@H](Cc1ccccc1)C(=O)N[C@@H](Cc1ccc(O)cc1)C(=O)N[C@H](C(=O)O)C(C)C [SSX2 41-49 (K41Y, A42V)]	1.0	0.1		
FISEKIFYV [SSX2 41-49 (K41F, A42I)]	2.7	0.3		
FVSDKIFYV [SSX2 41-49 (K41F, A42V, E44D)]	1.1	>10		
FVSEKIFSV [SSX2 41-49 (K41F, A42V, Y48S)]	3.9	>10		
FVSEKIFTV-OH [SSX2 41-49 (K41F, A42V, Y48T)]	3.8	>10		
FVSEKIFYM [SSX2 41-49 (K41F, A42V, V49M)]	0.8	>10		
FVSEKIFYV [SSX2 41-49 (K41F, A42V)]	3.1	0.1		
FVSEKLFSA	2.4	>10		
FVSEKLFTV [SSX2 41-49 (K41F, A42V, I46L, Y48T)]	2.6	>10		
FVSEKLFYV [SSX2 41-49 (K41F, A42V, I46L)]	1.9	3		

Molecule	Relative affinity (1/RA) [1]	Cross-reactivity and fct avidity (native to analogs)* [2]	activity in cross-reactivity assay (IFN-gamma production by wild-type SSX-2 41-49 specific T cells), in words ([2]; compared with wild-type peptide)	Relative affinity (1/RA) [3]
FVSQKIFYV [SSX2 41-49 (K41F, A42V, E44Q)]	0.4	10		
KASEKIFYI-OH [SSX2 41-49(V49I)]	1.0	10		
KISEKIFYV [SSX2 41-49 (A42I)]	1.7	3		
KLSEKIFYI [SSX2 41-49 (A42L, V49I)]	2.6	0.03		
KLSEKIFYV [SSX2 41-49-NH2 (A42L)]		3	lower concentration	
KMSEKIFYV [SSX2 41-49 (A42M)]	1.7	0.1		
KNal-1SEKIFYV [SSX2 41-49 (A42(Nal-1))]		>10		
KVSEKIFYI [SSX2 41-49 (A42V, V49I)]		0.3		
KVSEKIFYV [SSX2 41-49-NH2 (A42V)]		10		
WLSEKIFYV-OH [SSX2 41-49 (K41W, A42L)]	3.3	0.3		
WMSEKIFYV-OH [SSX2 41-49 (K41W, A42M)]	2.9	1		
WVSEKIFYV-OH [SSX2 41-49 (K41W, A42V)]	3.0	1		
YLSEKIFYV-OH [SSX2 41-49 (K41Y, A42L)]	1.2			
YMSEKIFYV-OH [SSX2 41-49 (K41Y, A42M)]	0.6	3		
B1				1.1 1/RA
B2				2.4 1/RA
B3				2.6 1/RA
B4				0.4 1/RA
B5				1.7 1/RA
B6				1.9 1/RA
